Source: patent publication US20230203043A1, “NOVEL IMIDAZOPYRAZINE DERIVATIVES” (Hoffmann-La Roche Inc., priority 2020, published 2023)
Counter-ions that a name gives are not always drawn.

Each compound was assayed on Acinetobacter baumannii ATCC17961 (assay: Antimicrobial susceptibility testing: 90% growth inhibitory concentration (IC90) determination in Iso-Sensitest broth, OD600 growth). Details: Acinetobacter baumannii, ATCC17961, 16 h, read-out: A. baumannii ATCC 17961 IC90 (uM), strain ATCC 17961, OD600 growth over 16 h.
Type: cell-based
Method in brief: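 Twofold compound dilutions (e.g. 50 to 0.097 μM final) in Iso-Sensitest broth with ~5×10^(5) CFU/ml, 35±2 °C. OD600 read every 20 min over 16 h; IC90 from growth inhibition during logarithmic phase.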

Row | Compound | IC90
1 | CCc1cc(Nc2nccn3c(-c4cn(Cc5nccn5C)nc4C(F)(F)F)cnc23)ccc1C(=O)NCCCNCCCCNCCCN [Example 84, N-[3-[4-(3-aminopropylamino)butylamino]propyl]-2-ethyl-4-[[3-[1-[(1-methylimidazol-2-yl)methyl]-3-(trifluoromethyl)pyrazol-4-yl]imidazo[1,2-a]pyrazin-8-yl]amino]benzamide hydrochloride] | 2.98 µM

Same assay, conditions: Acinetobacter baumannii, ATCC17961, 16 h, strain ATCC 17961, OD600 growth over 16 h, read-out: A. baumannii ATCC 17961 IC90

Row | Compound | IC90
2 | C=CCn1cc(-c2cnc3c(Nc4cc(C)c(C(=O)N5CCNCC5)c(F)c4)nccn23)c(C(F)(F)F)n1 [Example 69, [2-fluoro-6-methyl-4-[[3-[1-prop-2-enyl-3-(trifluoromethyl)pyrazol-4-yl]imidazo[1,2-a]pyrazin-8-yl]amino]phenyl]-piperazin-1-ylmethanone] | 0.433 µM
3 | CCc1cc(Nc2nccn3c(-c4cn(CC(F)F)nc4C(F)(F)F)cnc23)ccc1C(=O)N1CCN(C(=O)C2CCNCC2)CC1 [Example 70, [4-[[3-[1-(2,2-difluoroethyl)-3-(trifluoromethyl)pyrazol-4-yl]imidazo[1,2-a]pyrazin-8-yl]amino]-2-ethylphenyl]-[4-(piperidine-4-carbonyl)piperazin-1-yl]methanone] | 0.489 µM
4 | CCc1cc(Nc2nccn3c(-c4cn(CCF)nc4C(F)(F)F)cnc23)ccc1C(=O)N1CCN(C(=O)C2CCNCC2)CC1 [Example 71, [2-ethyl-4-[[3-[1-(2-fluoroethyl)-3-(trifluoromethyl)pyrazol-4-yl]imidazo[1,2-a]pyrazin-8-yl]amino]phenyl]-[4-(piperidine-4-carbonyl)piperazin-1-yl]methanone] | 0.593 µM
5 | C#CCNCCCNC(=O)c1c(C)cc(Nc2nccn3c(-c4cn(CC#C)nc4C(F)(F)F)cnc23)cc1F [Example 72, 2-fluoro-6-methyl-N-[3-(prop-2-ynylamino)propyl]-4-[[3-[1-prop-2-ynyl-3-(trifluoromethyl)pyrazol-4-yl]imidazo[1,2-a]pyrazin-8-yl]amino]benzamide] | 0.599 µM
6 | Cc1cc(Nc2nccn3c(-c4cn(CCF)nc4C(F)(F)F)cnc23)cc(F)c1C(=O)N1CCNCC1 [Example 73, [2-fluoro-4-[[3-[1-(2-fluoroethyl)-3-(trifluoromethyl)pyrazol-4-yl]imidazo[1,2-a]pyrazin-8-yl]amino]-6-methylphenyl]-piperazin-1-ylmethanone] | 0.687 µM
7 | Cc1cc(Nc2nccn3c(-c4cn(CC#N)nc4C(F)(F)F)cnc23)cc(F)c1C(=O)NCCOCCN [Example 75, N-[2-(2-aminoethoxy)ethyl]-4-[[3-[1-(cyanomethyl)-3-(trifluoromethyl)pyrazol-4-yl]imidazo[1,2-a]pyrazin-8-yl]amino]-2-fluoro-6-methylbenzamide] | 1.7 µM
8 | Cc1cc(Nc2nccn3c(-c4cn(CC#N)nc4C(F)(F)F)cnc23)cc(F)c1C(=O)N1CCNCC1 [Example 77, 2-[4-[8-[3-fluoro-5-methyl-4-(piperazine-1-carbonyl)anilino]imidazo[1,2-a]pyrazin-3-yl]-3-(trifluoromethyl)pyrazol-1-yl]acetonitrile] | 3.29 µM
9 | NCC(=O)N1CCN(C(=O)c2ccc(Nc3nccn4c(-c5cn(C(F)F)nc5C(F)(F)F)cnc34)cc2Cl)CC1 [Example 78, 2-amino-1-[4-[2-chloro-4-[[3-[1-(difluoromethyl)-3-(trifluoromethyl)pyrazol-4-yl]imidazo[1,2-a]pyrazin-8-yl]amino]benzoyl]piperazin-1-yl]ethanone] | 0.161 µM
10 | O=C(c1ccc(Nc2nccn3c(-c4cn(C(F)F)nc4C(F)(F)F)cnc23)cc1Cl)N1CC2(CNC2)C1 [Example 79, [2-chloro-4-[[3-[1-(difluoromethyl)-3-(trifluoromethyl)pyrazol-4-yl]imidazo[1,2-a]pyrazin-8-yl]amino]phenyl]-(2,6-diazaspiro[3.3]heptan-2-yl)methanone] | 0.222 µM
11 | Cc1cc(Nc2nccn3c(-c4c[nH]nc4C(F)(F)F)cnc23)cc(F)c1C(=O)NCCOCCN [Example 80, N-[2-(2-aminoethoxy)ethyl]-2-fluoro-6-methyl-4-[[3-[3-(trifluoromethyl)-1H-pyrazol-4-yl]imidazo[1,2-a]pyrazin-8-yl]amino]benzamide] | 0.737 µM
12 | Cc1cc(Nc2nccn3c(-c4c[nH]nc4C(F)(F)F)cnc23)cc(F)c1C(=O)NCCCCCN [Example 81, N-(5-aminopentyl)-2-fluoro-6-methyl-4-[[3-[3-(trifluoromethyl)-1H-pyrazol-4-yl]imidazo[1,2-a]pyrazin-8-yl]amino]benzamide] | 1.06 µM
13 | CCc1cc(Nc2nccn3c(-c4cn(Cc5csc(C)n5)nc4C(F)(F)F)cnc23)ccc1C(=O)NCCCNCCCCNCCCN [Example 82, N-[3-[4-(3-aminopropylamino)butylamino]propyl]-2-ethyl-4-[[3-[1-[(2-methyl-1,3-thiazol-4-yl)methyl]-3-(trifluoromethyl)pyrazol-4-yl]imidazo[1,2-a]pyrazin-8 yl]amino]benzamide hydrochloride] | 1.15 µM
14 | Cc1cc(Nc2nccn3c(-c4c[nH]nc4C(F)(F)F)cnc23)cc(F)c1C(=O)N[C@H](C)CN [Example 83, N-[(2R)-1-aminopropan-2-yl]-2-fluoro-6-methyl-4-[[3-[3-(trifluoromethyl)-1H-pyrazol-4-yl]imidazo[1,2-a]pyrazin-8-yl]amino]benzamide] | 2.46 µM
15 | C#CCNCCCNC(=O)c1c(C)cc(Nc2nccn3c(-c4c[nH]nc4C(F)(F)F)cnc23)cc1F [Example 85, 2-fluoro-6-methyl-N-[3-(prop-2-ynylamino)propyl]-4-[[3-[3-(trifluoromethyl)-1H-pyrazol-4-yl]imidazo[1,2-a]pyrazin-8-yl]amino]benzamide] | 3.26 µM
16 | Cc1cc(Nc2nccn3c(-c4c[nH]nc4C(F)(F)F)cnc23)cc(F)c1C(=O)N1CCNCC1 [Example 86, [2-fluoro-6-methyl-4-[[3-[3-(trifluoromethyl)-1H-pyrazol-4-yl]imidazo[1,2-a]pyrazin-8-yl]amino]phenyl]-piperazin-1-ylmethanone] | 3.38 µM
17 | NC12CC(NC(=O)c3ccc(Nc4nccn5c(-c6cn(CC(F)F)nc6C(F)(F)F)cnc45)cc3Cl)(C1)C2 [Example 87, N-(3-amino-1-bicyclo[1.1.1]pentanyl)-2-chloro-4-[[3-[1-(2,2-difluoroethyl)-3-(trifluoromethyl)pyrazol-4-yl]imidazo[1,2-a]pyrazin-8-yl]amino]benzamide] | 0.359 µM

Same assay, conditions: strain ATCC 17961, OD600 growth over 16 h, read-out: A. baumannii ATCC 17961 IC90

Row | Compound | IC90
18 | C#CCNCCCNC(=O)c1c(C)cc(Nc2nccn3c(-c4cn(CC(F)F)nc4C(F)(F)F)cnc23)cc1F [Example 68, 4-[[3-[1-(2,2-difluoroethyl)-3-(trifluoromethyl)pyrazol-4-yl]imidazo[1,2-a]pyrazin-8-yl]amino]-2-fluoro-6-methyl-N-[3-(prop-2-ynylamino)propyl] benzamide] | 0.43 µM
19 | C#CCNCCCNC(=O)c1c(C)cc(Nc2nccn3c(-c4cn(CCF)nc4C(F)(F)F)cnc23)cc1F [Example 74, 2-fluoro-4-[[3-[1-(2-fluoroethyl)-3-(trifluoromethyl)pyrazol-4-yl]imidazo[1,2-a]pyrazin-8-yl]amino]-6-methyl-N-[3-(prop-2-ynylamino)propyl] benzamide] | 0.781 µM
20 | C#CCNCCCNC(=O)c1c(C)cc(Nc2nccn3c(-c4cn(CC#N)nc4C(F)(F)F)cnc23)cc1F [Example 76, 4-[[3-[1-(cyanomethyl)-3-(trifluoromethyl)pyrazol-4-yl]imidazo[1,2-a]pyrazin-8-yl]amino]-2-fluoro-6-methyl-N-[3-(prop-2-ynylamino)propyl] benzamide] | 2.09 µM
